# Several values for one entry are separate records, joined by “and”; a condition that tells them apart may be missing. Equal entries are not always repeated. Where two headings read alike, the source gives them in different places.
# Columns and labels:
# [1] = tested on: P-glycoprotein; assay: [125I]iodomycin photolabelling of Pgp in EHR2/DNR+ cells; type: binding, mice
# From the text: (§1) Br. J. Cancer (1993), 67, 226 231 ? Macmillan Press Ltd., 1993 Effect of anthracycline analogs on photolabelling of p-glycoprotein by I'25 liodomycin and [3Hlazidopine: Relation to lipophilicity and inhibition of daunorubicin transport in multidrug resistant cells E. Frichel*, E.J.F. Demant2, M. Sehested3 & N.I. Nissen' 'Department of Medicine and Hematology, L 4042, Rigshospitalet-University Hospital, 9, Blegdamsvej, DK-2100 Copenhagen; 2Department of Biochemistry C, The Panum Institute, University of Copenhagen, DK-2200 Copenhagen; 3Department of Pathology, Sundby Hospital, DK-2300 Copenhagen, Denmark. […] We photoaffinity labelled P-glycoprotein in daunorubicin (DNR) resistant Ehrlich ascites tumour cells (EHR2/DNR + ) with a ['25I]iodinated Bolton-Hunter derivative of daunorubicin ([1251]iodomycin) and with [3H]azidopine. […] Anthracyclines are among the most valuable cytostatic agents in clinical use. Their usefulness is, however, limited by the occurrence of tumour cells with the multidrug resistance (MDR) phenotype (Beck, 1987; Bliek & Borst, 1989; Endicott & Ling, 1989; Kaye & Merry, 1985; Moscow & Cowan, 1988). MDR cells have an enhanced amount of a 150- 170 kDa plasma membrane glycoprotein, P-glycoprotein (Pgp) (Kartner et al., 1983 and 1985; Cornwell et al., 1986; Bradley et al., 1988; Beck, 1991a; Roninson, 1991), that may function as a low-specificity transport protein to facilitate the outward transport of cytotoxic agents including the anthracyclines. Thus, increased drug efflux and therefore decreased accumulation is seen in MDR cells not only to the drug for which resistance is developed but also to a wide spectrum of chemically unrelated cytostatics (Bradley et al., 1988; Fojo et al., 1985). […] The aim of this study was to examine these analogs for their ability to com- pete for ligand binding to Pgp and thus service as inhibitors for the outward drug transport system in MDR cells. Anthracycline inter-actions with Pgp were assessed using the specific photolabelling of the protein with [251I]iodomycin, a ['251]iodinated Bolton-Hunter derivative of DNR (Busche et al., 1989a) and with [3H]azidopine ([3H]AZP) which photolabels Pgp in plasma membrane vesicles from EHR2/ DNR + cells (Sehested et al., 1990) as well as in whole cells (Safa et al., 1987; Friche et al., 1990c). […] Material and methods Chemicals Duanorubicin (DNR); AdriamycinR (Doxorubicin/HCl, DOX); 4'-deoxy-4'-iododoxorubicin (DIDOX); and 4- demethoxy-DNR were kindly supplied from Farmitalia, Carlo Erba (Milan, Italy). N,N-dibenzyl-DNR was a gift from Dr Nicholas Bachur, (Baltimore, MD) and N- benzyladriamycin-14-valerate (AD 198) a gift from Professor M. Israel (Memphis, TN). Mitoxantrone was purchased from Lederle (New Jersey, USA), Aclacinomycin A from Lund- beck & Co A/S (Copenhagen, Denmark), OncovinR (Vincristine/HCl, VCR) from Eli Lilly Deutschland GMBH (Giessen, Germany), Cremophor EL from BASF Aktiengesellschaft (Ludwigshafen, Germany), and Tween 80 from the Sigma Chemical Co. (St. Louis, MO). ['251]-Bolton- Hunter reagent (2000 Ci mmol 1), [3H]AZP (42 Ci mmol- ') and non-radioactive AZP were purchased from Amersham International (Amersham, UK). All other chemicals were of analytical grade. Organic solvents were distilled prior to use. Triethylamine was distilled over ninhydrin and anhydrous methanol was stored over molecular sieve (3 A). Tumour cells Cells were either the wild-type Ehrlich ascites tumor line (EHR2) or the corresponding DNR-resistant line (EHR2/ DNR + ) (Dan0, 1971) displaying both the MDR phenotype (Sehested et al., 1990) and as recently shown, decreased Correspondence: E. Friche. Received 22 April 1992; and in revised form 21 September 1992.
# [2] = tested on: P-glycoprotein; assay: [3H]azidopine photolabelling of Pgp in EHR2/DNR+ cells; type: binding, mice; conditions: [3H]AZP 0.4 µM
# From the text: as §1
# [3] = pH 7.45
# From the text: as §1
# [4] = tested on: EHR2/DNR+ cells; assay: Modulating effect on steady-state DNR accumulation in EHR2/DNR+ cells; type: cell-based, mice; conditions: equimolar concentrations (5 µM)
# From the text: (§2) Br. J. Cancer (1993), 67, 226 231 ? Macmillan Press Ltd., 1993 Effect of anthracycline analogs on photolabelling of p-glycoprotein by I'25 liodomycin and [3Hlazidopine: Relation to lipophilicity and inhibition of daunorubicin transport in multidrug resistant cells E. Frichel*, E.J.F. Demant2, M. Sehested3 & N.I. Nissen' 'Department of Medicine and Hematology, L 4042, Rigshospitalet-University Hospital, 9, Blegdamsvej, DK-2100 Copenhagen; 2Department of Biochemistry C, The Panum Institute, University of Copenhagen, DK-2200 Copenhagen; 3Department of Pathology, Sundby Hospital, DK-2300 Copenhagen, Denmark. […] We photoaffinity labelled P-glycoprotein in daunorubicin (DNR) resistant Ehrlich ascites tumour cells (EHR2/DNR + ) with a ['25I]iodinated Bolton-Hunter derivative of daunorubicin ([1251]iodomycin) and with [3H]azidopine. […] Anthracyclines are among the most valuable cytostatic agents in clinical use. […] Anthracycline inter-actions with Pgp were assessed using the specific photolabelling of the protein with [251I]iodomycin, a ['251]iodinated Bolton-Hunter derivative of DNR (Busche et al., 1989a) and with [3H]azidopine ([3H]AZP) which photolabels Pgp in plasma membrane vesicles from EHR2/ DNR + cells (Sehested et al., 1990) as well as in whole cells (Safa et al., 1987; Friche et al., 1990c). […]
# [5] = tested on: Pgp; conditions: read-out: Kd for binding to Pgp, cited from earlier work
# [6] = tested on: EHR2/DNR+ cells; conditions: ref Friche et al., cited from earlier work
# [7] = tested on: Pgp; design: method as in Safa et al. (1987); conditions: ref Safa et al., 1987; cited from earlier work
# [8] = tested on: EHR2/DNR+ cells; assay: Steady-state drug accumulation in EHR2 and EHR2/DNR+ cells; type: cell-based, mice
# From the text: as §2, with “use. Their usefulness is, however, limited by the occurrence of tumour cells with the multidrug resistance (MDR) phenotype (Beck, 1987; Bliek & Borst, 1989; Endicott & Ling, 1989; Kaye & Merry, 1985; Moscow & Cowan, 1988). MDR cells have an enhanced amount of a 150- 170 kDa plasma membrane glycoprotein, P-glycoprotein (Pgp) (Kartner et al., 1983 and 1985; Cornwell et al., 1986; Bradley et al., 1988; Beck, 1991a; Roninson, 1991), that may function as a low-specificity transport protein to facilitate the outward transport of cytotoxic agents including the anthracyclines.” for “use.”
# [9] = 10 µM drug (1000-fold molar excess), iodomycin 10 nM, 30 min 37°C
# [10] = 40 µM drug (100-fold molar excess)
# [11] = 5 µM modulator (500-fold molar excess)
SMILES,"Per cent inhibition of [125I]iodomycin photolabelling of Pgp [1, 9]","Per cent inhibition of [125I]iodomycin photolabelling of Pgp ([1]; 20 µM drug, iodomycin 10 nM) [%]","Per cent inhibition of [125I]iodomycin photolabelling of Pgp ([1]; 40 µM drug, iodomycin 10 nM) [%]",Per cent inhibition of [3H]AZP photolabelling of Pgp ([2]; 10 µM drug) [%],Per cent inhibition of [3H]AZP photolabelling of Pgp ([2]; 20 µM drug) [%],"Per cent inhibition of [3H]AZP photolabelling of Pgp [2, 10] [%]","Lipid solubility (O/W), octanol/water partition coefficient [3]",also measured
CC(=O)[C@]1(O)Cc2c(O)c3c(c(O)c2[C@@H](O[C@H]2C[C@H](N)[C@H](O)[C@H](C)O2)C1)C(=O)c1ccccc1C3=O [4-demethoxy-daunorubicin],35.9%,52.2,58.3,1.5,3.6,19.8,13.08,–
"CCCCC(=O)OCC(=O)[C@]1(O)Cc2c(O)c3c(c(O)c2[C@@H](O[C@H]2C[C@H](NCc4ccccc4)[C@H](O)[C@H](C)O2)C1)C(=O)c1c(OC)cccc1C3=O [AD-198, N-benzyladriamycin-14-valerate]",85%,95.8,> 99,74.1,81.7,90.9,> 200,"Per cent inhibition of [3H]AZP photolabelling of Pgp ([2]; 40 µM drug (100-fold molar excess), listed as Ad-198): about 90%"
CC[C@@]1(O)C[C@H](O[C@H]2C[C@H](N(C)C)[C@H](O[C@H]3C[C@H](O)[C@H](O[C@H]4CCC(=O)[C@H](C)O4)[C@H](C)O3)[C@H](C)O2)c2c(cc3c(c2O)C(=O)c2c(O)cccc2C3=O)[C@H]1C(=O)OC [Aclacinomycin A],22.6%,52.0,75.3,65.3,74.7,85.7,–,Effect on accumulation of DNR [4]: did increase accumulation of DNR the most
CCOC(=O)C1=C(C)NC(C)=C(C(=O)OCCNC(=O)c2ccc(N=[N+]=[N-])cc2)C1c1ccccc1C(F)(F)F (stereo not drawn) [Azidopine],67.9%,–,–,–,–,–,–,"Per cent inhibition of [125I]iodomycin photolabelling of Pgp ([1]; 1 µM modulator): 6.7%; Per cent inhibition of [125I]iodomycin photolabelling of Pgp ([1]; 1 µM modulator, listed as AZP): hardly inhibited; Per cent inhibition of [125I]iodomycin photolabelling of Pgp [1, 11]: 50.0%; Per cent inhibition of [125I]iodomycin photolabelling of Pgp ([1]; 5 µM modulator (500-fold molar excess), listed as AZP): 50%; Kd ([5]; ref Safa et al., 1987): 1000 nM"
"COc1cccc2c1C(=O)c1c(O)c3c(c(O)c1C2=O)C[C@@](O)(C(=O)CO)C[C@@H]3O[C@H]1C[C@H](N)[C@H](I)[C@H](C)O1 [DIDOX, 4'-deoxy-4'-iododoxorubicin]",20.6%,17.5,22.5,0,0,19.7,14.51,"Effect on accumulation of DNR ([6]; 1990b, Arcamone, 1985): did not increase DNR accumulation"
COc1cccc2c1C(=O)c1c(O)c3c(c(O)c1C2=O)C[C@@](O)(C(=O)CO)C[C@@H]3O[C@H]1C[C@H](N)[C@H](O)[C@H](C)O1 [Doxorubicin],0%,0,16.8,0,10.5,11.0,1.22,"Per cent inhibition of [125I]iodomycin photolabelling of Pgp ([1]; 10 µM drug (1000-fold molar excess), iodomycin 10 nM, 30 min 37°C, listed as DOX): did not cause significant inhibition; Per cent inhibition of [125I]iodomycin photolabelling of Pgp ([1]; 40 µM drug, iodomycin 10 nM, listed as DOX): 17% and 10-17%; Per cent inhibition of [3H]AZP photolabelling of Pgp ([2]; 40 µM drug (100-fold molar excess), listed as DOX): 10-17%; Inhibition of [3H]AZP labelling of Pgp [7]: 19%; Effect on accumulation of DNR ([6]; 1990a): does not increase accumulation of DNR"
O=C1c2c(O)ccc(O)c2C(=O)c2c(NCCNCCO)ccc(NCCNCCO)c21 [Mitoxantrone],42.9%,56.9,58.8,7.5,15.6,19.5,5.06,–
"COc1cccc2c1C(=O)c1c(O)c3c(c(O)c1C2=O)C[C@@](O)(C(C)=O)C[C@@H]3OC1CC(N(Cc2ccccc2)Cc2ccccc2)C(O)C(C)O1.Cl (stereo partly drawn) [N,N,-dibenzyl-daunorubicin]",52.4%,97.3,> 99,75.2,87.1,90.5,> 200,"Per cent inhibition of [125I]iodomycin photolabelling of Pgp ([1]; 20 µM drug, iodomycin 10 nM, listed as N,N-dibenzyl-DNR): 97%; Per cent inhibition of [3H]AZP photolabelling of Pgp ([2]; 40 µM drug (100-fold molar excess), listed as N,N-dibenzyl-DNR): about 90%; Effect on accumulation of DNR [4]: did increase accumulation of DNR the most"
CC[C@]1(O)C[C@H]2CN(CCc3c([nH]c4ccccc34)[C@@](C(=O)OC)(c3cc4c(cc3OC)N(C=O)[C@H]3[C@@](O)(C(=O)OC)[C@H](OC(C)=O)[C@]5(CC)C=CCN6CC[C@]43[C@@H]65)C2)C1 [Vincristine],95% and 94.3%,–,–,–,–,–,1.98,"Per cent inhibition of [125I]iodomycin photolabelling of Pgp ([1]; 1 µM modulator): 53.1%; Per cent inhibition of [125I]iodomycin photolabelling of Pgp ([1]; 1 µM modulator, listed as VCR): about 50%; Per cent inhibition of [125I]iodomycin photolabelling of Pgp [1, 11]: 78.6%; Per cent inhibition of [125I]iodomycin photolabelling of Pgp ([1]; 10 µM drug (1000-fold molar excess), iodomycin 10 nM, 30 min 37°C, listed as VCR): almost completely blocked"
COc1cccc2c1C(=O)c1c(O)c3c(c(O)c1C2=O)CC(O)(C(C)=O)CC3OC1CC(NC(=O)CCc2ccc(O)c(I)c2)C(O)C(C)O1 (stereo not drawn) [[125I]iodomycin],–,–,–,–,–,–,–,"Reduced steady-state accumulation in EHR2/DNR+ relative to EHR2 [8]: ~5 fold; Steady-state accumulation ([8]; EHR2/DNR+ cells): 42 fmol 10-6 cells; Steady-state accumulation ([8]; EHR2 cells (wild type)): 207 fmol 10-6 cells; Kd ([5]; ref Busche et al., 1989b): 25 nM"
